Experimental data published in patent US20250019385A1, “SPIROCYCLIC ANNULATED 2-AMINO-3-CYANO THIOPHENES AND DERIVATIVES FOR THE TREATMENT OF CANCER” (Boehringer Ingelheim International GmbH, priority 2023, published 2025).
In brackets after ≈: the same amount, converted by molar mass. Like-named read-outs stand apart in the source and are kept apart here.

Tests used:
[1] = Solubility measurement (DMSO solution precipitation method); format: physicochemical; settings: aqueous buffer, kinetic from dmso stock
Outline: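 A 10 mM DMSO stock was diluted to 250 μM final in McIlvaine buffer at pH 4.5 or 6.8, then shaken 24 h at ambient temperature. After filtering off precipitate, filtrate concentration was quantified by LC-UV against a fully dissolved reference in acetonitrile/water (1:1).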

Ba/F3 cells KRAS G12V = test: Ba/F3 proliferation assay (KRAS G12V); format: cell-based; settings: Mus musculus, BaF3, 72 h, AlamarBlue viability
Outline: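 Ba/F3 cells retrovirally transduced with KRAS G12 mutant, puromycin-selected, grown IL-3-independent; seeded in RPMI-1640 + 10% FCS without IL-3. Logarithmic compound dose series in duplicate, 72 h at 37° C., AlamarBlue fluorescence as % of DMSO control; IC50 from four-parameter non-linear regression.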

[2] = Plasma protein binding assay (PPB), equilibrium dialysis; format: in vitro ADME; settings: bovine, 10% FCS in PBS, read-out: PPB 10% FCS (% fu)
Outline: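 Compound at 1-10 μmol/L in 10% FCS in PBS was dialysed against PBS (with or without dextran) across a 5-10 kg/mol cut-off membrane for 3-5 h at 37° C. Both chambers were protein-precipitated and compound was quantified by LC-MS. The unbound fraction was calculated from the serum-side and buffer-side concentrations.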

NCI-H727 cells = test: NCI-H727 CTG proliferation assay (120 h) (lung cancer, G12V); format: cell-based; settings: Homo sapiens
Outline: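 Cells seeded at 500/well in RPMI + 10% FCS, left overnight, then dosed with a log dilution series in technical duplicate; untreated T0 plate read at compound addition. After 120 h at 37 °C, CellTiter-Glo luminescence read; viability as % of DMSO control, IC50 from four-parameter non-linear regression.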

MKN1 cells = test: MKN1 CTG proliferation assay (120 h) (gastric cancer, wt amplified); format: cell-based; settings: Homo sapiens, MKN-1
Outline: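 Cells were seeded at 200 per well in RPMI-1640 with 10% FCS, grown overnight, then exposed to logarithmic compound dilutions in duplicate for 120 h. Viability was read by CellTiter-Glo luminescence as percent of DMSO controls, with untreated T0 cells measured at dosing. IC50 came from four-parameter non-linear regression.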

[3] = McIlvaine buffer pH 4.5, 24 h, read-out: solubility pH 4.5
[4] = McIlvaine buffer pH 6.8, 24 h, read-out: solubility pH 6.8

SMILES | solubility at 24 h [1, 3] [µg/mL] | solubility at 24 h [1, 4] [µg/mL] | IC50 (Ba/F3 cells KRAS G12V) [nM] | fraction unbound [2] | IC50 (NCI-H727 cells) [nM] | IC50 (MKN1 cells) [nM]
CO[C@H]1CCN(C)[C@@H]1[C@H](C)Oc1nc(-c2onc3c2CCC[C@@]32CCCc3sc(N)c(C#N)c32)nc2c1CN(C1COC1)C[C@]21CCOC1 [I-57] | > 167 | 72 (≈ 105 µM) | 2 | 0.28 | 3 | 1
CO[C@H]1CCN(C)[C@@H]1[C@H](C)Oc1nc(-c2noc3c2CCC[C@@]32CCCc3sc(N)c(C#N)c32)nc2c1n(C)c(=O)n2[C@@H]1CCOC1 [II-1] | > 161 | 37 (≈ 56 µM) | 2 | 0.09 | 2 | 6
C[C@H](Oc1nc(-c2noc3c2CCC[C@@]32CCCc3sc(N)c(C#N)c32)nc2c1n(C)c(=O)n2[C@@H]1CCOC1)[C@@H]1CCCN1C [II-2] | > 154 | > 153 | 2 | 0.19 | 3 | 4
CO[C@H]1CCN(C)[C@@H]1[C@H](C)Oc1nc(-c2noc3c2CCC[C@@]32CCCc3sc(N)c(C#N)c32)nc2c1n(C)c(=O)n2[C@@H]1CCCOC1 [II-3] | > 151 | 11 (≈ 16.3 µM) | 2 | 0.03 | 5 | 14
C[C@H](Oc1nc(-c2noc3c2CCC[C@@]32CCCc3sc(N)c(C#N)c32)nc2c1cnn2[C@@H]1CCOC1)[C@@H]1CCCN1C [II-4] | > 139 | 104 (≈ 173 µM) | 5 | 0.1 | 12 | 63
CO[C@@H]1C[C@@H]([C@H](C)Oc2nc(-c3noc4c3CCC[C@@]43CCCc4sc(N)c(C#N)c43)nc3c2n(C)c(=O)n3[C@@]23COC[C@@H]2C3)N(C)C1 [II-6] | > 144 | 62 (≈ 92.2 µM) | 1 | 0.07 | 1 | 12
C[C@H](Oc1nc(-c2noc3c2CCC[C@@]32CCCc3sc(N)c(C#N)c32)nc2c1COC[C@]21CCOC1)[C@@H]1CCCN1C [II-8] | > 142 | > 143 | 1 | 0.13 | 1 | 3
C[C@H](Oc1nc(-c2noc3c2CCC[C@@]32CCCc3sc(N)c(C#N)c32)nc2c1COC[C@@]21CCOC1)[C@@H]1CCCN1C [II-9a] | > 141 | > 138 | 28 | 0.07 | 22 | 209
C[C@H](Oc1nc(-c2noc3c2CCC[C@@]32CCCc3sc(N)c(C#N)c32)nc2c1CCO[C@]21CCOC1)[C@@H]1CCCN1C [II-9b] | > 141 | > 137 | 2 | 0.09 | 4 | 19
CO[C@@H]1C[C@@H]([C@H](C)Oc2nc(-c3noc4c3CCC[C@@]43CCCc4sc(N)c(C#N)c43)nc3c2COC[C@]32CCOC2)N(C)C1 [II-11] | > 144 | 45 (≈ 71.1 µM) | 1 | 0.09 | 1 | 6
C[C@H](Oc1nc(-c2noc3c2CCC[C@@]32CCCc3sc(N)c(C#N)c32)nc2c1CNC[C@]21CCOC1)[C@@H]1CCCN1C [II-15] | > 147 | > 148 | 2 | 0.3 | 3 | 3

More lines, now with the values ahead:

solubility at 24 h [1, 3] [µg/mL] | solubility at 24 h [1, 4] [µg/mL] | IC50 (Ba/F3 cells KRAS G12V) [nM] | fraction unbound [2] | IC50 (NCI-H727 cells) [nM] | IC50 (MKN1 cells) [nM] | SMILES
> 167 | 122 (≈ 177 µM) | 2 | 0.24 | 5 | 21 | CO[C@@H]1C[C@@H]([C@H](C)Oc2nc(-c3onc4c3CCC[C@@]43CCCc4sc(N)c(C#N)c43)nc3c2CN(C2COC2)C[C@]32CCOC2)N(C)C1 [I-58]
> 152 | > 140 | 1 | 0.19 | 3 | 10 | C[C@H](Oc1nc(-c2noc3c2CCC[C@@]32CCCc3sc(N)c(C#N)c32)nc2c1CN(C1COC1)C[C@]21CCOC1)[C@@H]1CCCN1C [II-12]
> 151 | 52 (≈ 75.6 µM) | 1 | 0.09 | 1 | 5 | CO[C@H]1CCN(C)[C@@H]1[C@H](C)Oc1nc(-c2noc3c2CCC[C@@]32CCCc3sc(N)c(C#N)c32)nc2c1CN(C1COC1)C[C@]21CCOC1 [II-13]
> 149 | 114 (≈ 166 µM) | 2 | 0.12 | 3 | 19 | CO[C@@H]1C[C@@H]([C@H](C)Oc2nc(-c3noc4c3CCC[C@@]43CCCc4sc(N)c(C#N)c43)nc3c2CN(C2COC2)C[C@]32CCOC2)N(C)C1 [II-14]
> 138 | 102 (≈ 152 µM) | 1 | 0.1 | 2 | 20 | C[C@H](Oc1nc(-c2noc3c2CCC[C@@]32CCCc3sc(N)c(C#N)c32)nc2c1CN(C1COC1)C[C@]21CCOC1)[C@@H]1CC[C@H](C)N1C [II-17]
